In brackets after ≈: the same amount, converted by molar mass.
How the values were obtained:
[1] = test system: Mycobacterium tuberculosis; assay: Inhibition of WecA in Mycobacterium tuberculosis
[2] = test system: Mycobacterium tuberculosis; assay: Antibacterial activity against Mycobacterium tuberculosis after 20 hrs by NCCLS-based two-fold broth dilution method; type: functional
[3] = test system: Staphylococcus aureus; assay: Antibacterial activity against methicillin resistant Staphylococcus aureus after 20 hrs by NCCLS-based two-fold broth dilution method; type: functional; conditions: read-out: MIC
[4] = test system: Staphylococcus aureus; assay: Antibacterial activity against methicillin resistant Staphylococcus aureus No. 5; type: functional
[5] = test system: Escherichia coli; assay: Antibacterial activity against Escherichia coli after 20 hrs by NCCLS-based two-fold broth dilution method; type: functional
[6] = test system: Mycolicibacterium vaccae; assay: Antibacterial activity against Mycobacterium vaccae after 20 hrs by NCCLS-based two-fold broth dilution method; type: functional
[7] = test system: Staphylococcus aureus; assay: Antibacterial activity against Staphylococcus aureus after 20 hrs by NCCLS-based two-fold broth dilution method; type: functional
[8] = test system: Bacillus subtilis; assay: Inhibition of TagO in Bacillus subtilis
[9] = test system: Mycobacterium tuberculosis; assay: Inhibition of WecA in Mycobacterium tuberculosis mc2 6230
[10] = test system: Mycobacterium intracellulare; assay: Antibacterial activity against Mycobacterium intracellulare JCM3684; type: functional
[11] = test system: Enterococcus faecalis; assay: Antibacterial activity against Enterococcus faecalis JCM 5803; type: functional
[12] = test system: Enterococcus faecalis; assay: Antibacterial activity against Enterococcus faecalis NCTC122103; type: functional
[13] = test system: Mycobacterium tuberculosis; assay: Antibacterial activity against Mycobacterium tuberculosis H37Rv; type: functional
[14] = test system: Bacillus subtilis; assay: Antibacterial activity against Bacillus subtilis after 20 hrs by NCCLS-based two-fold broth dilution method; type: functional
[15] = test system: Mycolicibacterium smegmatis; assay: Inhibition of WecA in Mycobacterium smegmatis
[16] = target: T1, Phospho-N-acetylmuramoyl-pentapeptide-transferase (Bacillus subtilis (strain 168), UniProt Q03521); assay: Inhibition of MraY in Bacillus subtilis
T1 sequence (Q03521 whole entry): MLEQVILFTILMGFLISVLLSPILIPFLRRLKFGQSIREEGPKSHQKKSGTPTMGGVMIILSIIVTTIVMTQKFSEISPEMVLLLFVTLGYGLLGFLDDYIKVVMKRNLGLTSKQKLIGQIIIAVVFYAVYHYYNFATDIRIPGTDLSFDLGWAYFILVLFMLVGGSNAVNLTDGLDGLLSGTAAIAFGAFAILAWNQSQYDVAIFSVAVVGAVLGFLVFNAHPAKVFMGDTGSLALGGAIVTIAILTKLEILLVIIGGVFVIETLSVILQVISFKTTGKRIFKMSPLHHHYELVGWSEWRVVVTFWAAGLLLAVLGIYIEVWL

[17] = Antibacterial activity against Mycobacterium avium subsp. avium ATCC 25291; type: functional
[18] = test system: Mycobacterium intracellulare; assay: Antibacterial activity against Mycobacterium intracellulare after 20 hrs by NCCLS-based two-fold broth dilution method; type: functional
[19] = test system: Mycolicibacterium smegmatis; assay: Antibacterial activity against Mycobacterium smegmatis after 20 hrs by NCCLS-based two-fold broth dilution method; type: functional
[20] = test system: Streptococcus pneumoniae; assay: Antibacterial activity against Streptococcus pneumoniae S-223; type: functional
[21] = test system: Mycolicibacterium phlei; assay: Antibacterial activity against Mycobacterium phlei after 20 hrs by NCCLS-based two-fold broth dilution method; type: functional
[22] = test system: Streptococcus pneumoniae; assay: Antibacterial activity against Streptococcus pneumoniae CR-8; type: functional
[23] = test system: Klebsiella pneumoniae; assay: Antibacterial activity against Klebsiella pneumoniae after 20 hrs by NCCLS-based two-fold broth dilution method; type: functional
[24] = test system: Staphylococcus aureus; assay: Antibacterial activity against Staphylococcus aureus FDA209P; type: functional; conditions: FDA 209P
[25] = test system: Mycobacterium avium subsp. paratuberculosis; assay: Antibacterial activity against Mycobacterium avium subsp. paratuberculosis ATCC 43015; type: functional
[26] = test system: Mycobacterium avium; assay: Antibacterial activity against Mycobacterium avium after 20 hrs by NCCLS-based two-fold broth dilution method; type: functional

With `CCCCc1ccc(NC(=O)C2=CCN(C)[C@@H]([C@H](O[C@@H]3O[C@H](CN)[C@@H](O)[C@H]3O)[C@H]3O[C@@H](n4ccc(=O)[nH]c4=O)[C@H](O)[C@@H]3O)C(=O)N2C)cc1` the MIC [1] was 0.04 µg/mL (≈ 0.0581 µM), the MIC [2] was 1.56 µg/mL (≈ 2.27 µM) and the MIC [3] was 100 µg/mL (≈ 145 µM). It also gave an MIC [4] of 8 to 100 µg/mL (≈ 11.6 to 145 µM), an MIC [5] of over 100 µg/mL and an MIC [6] of 50 µg/mL (≈ 72.6 µM). It also gave an MIC [7] of 25 µg/mL (≈ 36.3 µM), an MIC [8] of 0.05 µg/mL (≈ 0.0726 µM) and an MIC [9] of 0.04 µg/mL (≈ 0.0581 µM). For the same compound, the MIC [10] was 0.2 to 1.56 µg/mL (≈ 0.29 to 2.27 µM), the MIC [11] was 8 to 100 µg/mL (≈ 11.6 to 145 µM) and the MIC [12] was 8 to 100 µg/mL (≈ 11.6 to 145 µM). For the same compound, the MIC [13] was 0.2 to 1.56 µg/mL (≈ 0.29 to 2.27 µM), the MIC [14] was 3.13 µg/mL (≈ 4.54 µM) and the MIC [15] was 0.0044 µg/mL (≈ 0.00639 µM). For the same compound, the IC50 [16] was 581 nM, the MIC [17] was 0.2 to 1.56 µg/mL (≈ 0.29 to 2.27 µM) and the MIC [18] was 0.2 µg/mL (≈ 0.29 µM). The MIC [19] was 6.25 µg/mL (≈ 9.07 µM), the MIC [20] was 8 to 100 µg/mL (≈ 11.6 to 145 µM) and the MIC [21] was 12.5 µg/mL (≈ 18.1 µM). For the same compound, the MIC [22] was 8 to 100 µg/mL (≈ 11.6 to 145 µM), the MIC [23] was 50 µg/mL (≈ 72.6 µM) and the MIC [24] was 8 to 100 µg/mL (≈ 11.6 to 145 µM). For the same compound, the MIC [25] was 0.2 to 1.56 µg/mL (≈ 0.29 to 2.27 µM) and the MIC [26] was 0.39 to 1.56 µg/mL (≈ 0.566 to 2.27 µM).

From ChEMBL document CHEMBL4402510, “Caprazamycins: Promising lead structures acting on a novel antibacterial target MraY” (Eur J Med Chem, 2019)
